According to US20100324130A1, “DAA PERIPHERAL BENZODIAZEPINE RECEPTOR LIGAND FOR CANCER IMAGING AND TREATMENT” (priority 2006, published 2010):

Key:
PBR [1] = details: cited from earlier work
PBR [2] = details: cited from earlier work; for IC50: comparison values for parent ligand
[3] = system: MDA-MB-231 human breast tumor (high PBR expressing) cells; assay: Apoptosis study, CellTiter-Glo luminescent cell viability assay; format: cell-based; details: MDA-MB-231, three days
Method: (§1) Apoptosis Study Using Etoposide and EtoposideDAA 50,000 MDA-MB-231 human breast tumor (high PBR expressing) or human Jurkat T lymphocyte cells (low PBR expressing) cells/well were added to 96 well plates and incubated under standard tissue culture conditions (37° C., 5% CO2) for 24 hours. […] After three days, CellTiter-Glo luminescent cell viability assay (Promega) was added. The plates were incubated for an additional one hour and the […] was counted under Xenogen IVIS imaging system. Three wells were used for control which had cells treated with viability assay without drug. Blank […] not have cells or drug, but had viability assay. Medium samples had cells only, without drug or viability assay.

[4] = system: human Jurkat T lymphocyte cells (low PBR expressing); assay: as above; format: cell-based
Method: as §1

[5] = target: T1, PBR protein harvested from MA-10 cells (Mus musculus, UniProt P50637); assay: Competitive binding study against [3H]PK11195 on PBR protein; details: amino group capped by acetyl group; [3H]PK11195 radioligand; 4° C., 90 minutes
T1 construct: PBR protein was harvested from MA-10 cells and stocked in PBS at 10 mg/mL; endogenous in cells; host or cells: MA-10 cells
Method: More specifically, conjugable form of DAA1106, with 3-9 carbon spacers, has been synthesized, characterized, and used in a competitive binding assay. The amino group was capped by acetyl group to reduce non-specific binding (Scheme 2).
PBR protein was harvested from MA-10 cells and stocked in PBS at 10 mg/mL. The stock solution was diluted to 30 μg/100 μL for the binding study. [^3H]PK11195 was used as radioligand and the specific activity of the stock solution was 73.6 Ci/mmole (˜11.8 μM). A diluted solution of 15 nM in PBS was prepared before use. For each of the molecules tested (NIRDAA, LissDAA and C3-9DAA1106 amide), eight concentrations of solutions from 3×10^−4M to 3×10^−11M in PBS buffer were prepared. 30 test tubes were used for the study of each molecule. 3 of them were used for total binding (100 μL 15 nM [^3H]PK11195+100 μL PBS buffer+100 μL 30 μg/100 μL PBR protein), 3 test tubes were for non-specific binding (100 μL 15 nM [^3H]PK11195+100 μL 15 μM PK11195+100 μL 30 μg/100 μL PBR protein) and the other 24 were triplicates for each doses of competitor ligand (100 μL, 15 nM [^3H]PK11195+100 μL competitor solution+100 μL 30 μg/100 μL PBR protein). All test tubes were vortexed and then incubated at 4° C. for 90 minutes. Reactions were stopped by filtration on FG/B filters using the Brandel binding apparatus through Whatman GF/B filters (Brandel, Gaithersburg, Md.). The filters (24 positions each) were preincubated in PBS/H2O containing 0.05% PEI for 20-30 minutes before filtration. The filters were then washed 5 times with PBS, put in scintillation vials, vortexed in scintillation fluid and counted. The […] and Ki (equilibrium dissociation constant) values were calculated using the PRISM program package

Row | SMILES | IC50 [5] | Ki [5] | further results
1 | COc1ccc(OC)c(CN(C(C)=O)c2cc(F)ccc2Oc2ccccc2)c1 [DAA1106] |  |  | concentration to displace PBR complexed PK11195 and Ro5-4864 (PBR [1]): 10^−15-10^−12 M; IC50 (PBR [2]): 0.28 nM; binding affinity for PBR (PBR [2]; fentomolar): 10^−15 M
2 | COc1ccc(NCCCCCCNC(=O)CCOc2c(OC)cc([C@@H]3c4cc5c(cc4[C@@H](OC4OC6COC(C)OC6C(O)C4O)[C@H]4COC(=O)[C@H]34)OCO5)cc2OC)c(CN(C(C)=O)c2cc(F)ccc2Oc2ccccc2)c1 (stereo partly drawn) [etoposide-C6DAA1106] |  |  | concentration at which cells were beginning to respond [3]: 10^−4 M; toxicity to normal cells compared with etoposide ([4]; Jurkat (low PBR expressing)): less toxicity to normal cells than etoposide; concentration at which cells effectively respond ([4]; Jurkat, three days): 10^−4 M
3 | COc1ccc(OC)c(CN(C(C)=O)c2cc(F)ccc2Oc2ccccc2)c1 [[^11C]DAA1106] |  |  | IC50 (PBR [2]): 0.91 nM
4 | COc1ccc(NCCCCCCNC(C)=O)c(CN(C(C)=O)c2cc(F)ccc2Oc2ccccc2)c1 [C6DAA1106] | 350 ± 220 nM | 52 ± 30 nM | 
5 | COc1cc([C@@H]2c3cc4c(cc3[C@@H](O[C@@H]3O[C@@H]5CO[C@@H](C)O[C@H]5[C@H](O)[C@H]3O)[C@H]3COC(=O)[C@H]23)OCO4)cc(OC)c1O [etoposide, reference compound] |  |  | concentration at which cells were beginning to respond [3]: 10^−4 M; concentration at which cells began to respond ([4]; Jurkat, three days): 10^−6 M; concentration at which cells effectively respond ([4]; Jurkat, three days): 10^−5 M

Further lines, with some results ahead:

Row | IC50 [5] | Ki [5] | SMILES | further results
6 | 290 nM | 51 ± 17 nM | COc1ccc(NCCCCCCCCCNC(C)=O)c(CN(C(C)=O)c2cc(F)ccc2Oc2ccccc2)c1 [C9DAA1106] | 
7 | 840 nM | 149 ± 49 nM | COc1ccc(NCCCCCNC(C)=O)c(CN(C(C)=O)c2cc(F)ccc2Oc2ccccc2)c1 [C5DAA1106] | 
8 | 240 nM | 43 ± 19 nM | COc1ccc(NCCCCCCCCNC(C)=O)c(CN(C(C)=O)c2cc(F)ccc2Oc2ccccc2)c1 [C8DAA1106] | 
9 | 400 nM | 71 ± 33 nM | COc1ccc(NCCCCCCCNC(C)=O)c(CN(C(C)=O)c2cc(F)ccc2Oc2ccccc2)c1 [C7DAA1106] | 
10 | 390 nM | 68 ± 23 nM | COc1ccc(NCCCNC(C)=O)c(CN(C(C)=O)c2cc(F)ccc2Oc2ccccc2)c1 [C3DAA1106] | 
11 | 800 nM | 141 ± 36 nM | COc1ccc(NCCCCNC(C)=O)c(CN(C(C)=O)c2cc(F)ccc2Oc2ccccc2)c1 [C4DAA1106] | 
